Assay results published in publication PMC5007466, “VCP recruitment to mitochondria causes mitophagy impairment and neurodegeneration in models of Huntington's disease” (Nature Communications, 2016).

What was measured:
[1] = tested on: HdhQ111 / HdhQ7 mouse striatal cells; test: Mitochondrial membrane potential (TMRM), mouse striatal cells; type: cell-based
Method: Immortalized striatal cell lines HdhQ111 mutant and HdhQ7 wt cells were obtained from the CHDI Foundation. Cells were cultured in DMEM supplemented with 10% FBS, 100 μg/ml penicillin, 100 μg ml^−1 streptomycin, and 400 μg ml^−1 G418. Cells were grown at 33 °C in a 5% CO2 incubator. Cells within 14 passages were used in all experiments.
For silencing Htt and VCP in HD striatal cells, control siRNA, mouse Htt and mouse VCP siRNA were purchased from Thermo Fisher Scientific. HdhQ7 and HdhQ111 cells were transfected either with control siRNA, or Htt or VCP siRNA using TransIT-TKO Transfection Reagent (Mirus Bio, LLC), according to the manufacturer's instructions. The sequences for the siRNAs used in this study are as follows: mouse Htt, 5′-[…]-3′; Mouse VCP, 5′-GAGAGCAACCUUCGUAAG-3′; control non-targeting siRNA, 5′-TTCTCCGAACGTGTCACGT-3′.
To determine mitochondrial mass in cultures, cells were stained with antibodies against Tom20 or stained with Mitotracker green. The fluorescent density of Tom20 (1:500) or mitotracker green was quantitated using NIH Image J software. To measure the membrane potential of mitochondria in cultures, cells were incubated with 0.25 μM tetra-methyl rhodamine (Invitrogen Life Science) for 20 min at 37 °C. To determine lysosomal activity, cells were incubated with Lyso-ID Red dye (Enzo Life Science) for 30 min at 37 °C. The images were visualized by microscope and quantitation of the density of red fluorescence was carried out using NIH ImageJ software. For immunocytochemistry study, at least 100 cells per group were counted and quantitated by an observer blind to experimental conditions.

[2] = tested on: HD patient-iPS cell derived neurons; test: Mitochondrial mass (Mitotracker green); type: cell-based, human; conditions: 1 μM per day for 5 days
Method: (§1) iPS cells from a normal subject and a HD patient (carrying 41 CAG repeats) were differentiated into neurons using the protocol from our previous studies. Briefly, iPS cells were plated onto 6-well plates precoated with 2.5% Matrigel and allowed to reach 90% confluence in feeder-free medium. For the first 10 days, cells were treated with SB431542 (10 μM; Tocris Bioscience) and Noggin (100 ng/ml) in Neural Media (NM) containing Neurobasal and DMEM (1:1), B27 supplement minus vitamin A (50 × , Invitrogen), N2 supplement (100 × , Invitrogen), GlutaMax (Invitrogen, 100 × ), FGF2 ([…]) and EGF ([…]), 100 units per ml penicillin and 100 μg ml^−1 streptomycin). […]
(§2) To determine mitochondrial mass in cultures, cells were stained with antibodies against Tom20 or stained with Mitotracker green. The fluorescent density of Tom20 (1:500) or mitotracker green was quantitated using NIH Image J software. […] The images were visualized by microscope and quantitation of the density of red fluorescence was carried out using NIH ImageJ software. For immunocytochemistry study, at least 100 cells per group were counted and quantitated by an observer blind to experimental conditions.

[3] = tested on: HD patient-iPS cell derived neurons; test: Lysosomal activity (Lyso-ID Red); type: cell-based, human; conditions: 1 μM per day for 5 days
Method: as §1, §2

[4] = tested on: C57Black mice; test: Hematology of naive mice; type: in vivo, mouse; conditions: 3 mg/kg/day, 4 weeks
Method: Supplementary Figure 8 : Toxicity analysis of HV -3in naïve mice .
We performed a toxicity analysis of HV-3 in mice. Six -week-old C57Black mice were treated with saline or peptide HV-3 at 3mg/kg/day by Alzet pump implantation. After 4- week treatment, the plasma, blood and whole mouse bodies of mice were collected. Examination on blood chemistry (Supplementary Table 1), hematology (Supplementary Table 2) and general necropsy of mice were performed at the Animal Diagnostic Laboratory at Stanford University. The experimenter who conducted the analysis was blind to the treatment groups. Automated hematology was performed on the Sysmex XT-2000iV analyzer system. Blood smears were made for all full CBC samples and reviewed by a medical technologist. Manual differentials were performed as indicated by species and automated analysis. Chemistry analysis was performed on the Siemens Dimension Xpand analyzer. […]
Student’s t test. Four-week sustained treatment with HV-3 by pump implantation had no effects on blood chemistry (Supplementary Table 1), hematology (Supplementary Table 2), and gross necropsy of naïve mice when compared to mice treated with saline. […]
Table 2: Effects of 4-w eek treatment w ith HV-3 on hematology of naïve mice […]
Mean SD Mean SD p-value unit n

Compound: CSCC[C@H](NC(=O)[C@@H](NC(=O)[C@H](CC(C)C)NC(=O)[C@@H](NC(=O)[C@H](Cc1c[nH]cn1)NC(=O)CCCCCNC(=O)[C@H](CCCNC(=N)N)NC(=O)[C@H](CCCNC(=N)N)NC(=O)[C@H](CCCNC(=N)N)NC(=O)[C@H](CCC(N)=O)NC(=O)[C@H](CCCNC(=N)N)NC(=O)[C@H](CCCNC(=N)N)NC(=O)[C@H](CCCCN)NC(=O)[C@H](CCCCN)NC(=O)[C@H](CCCNC(=N)N)NC(=O)CNC(=O)[C@@H](N)Cc1ccc(O)cc1)C(C)C)C(C)C)C(=O)N[C@@H](CS)C(=O)N[C@@H](C)C(=O)N[C@H](C(N)=O)[C@@H](C)O [HV-3]
- mitochondrial membrane potential ([1]; HdhQ111 cells, HV-3 3 uM/day for 3 days versus TAT): markedly improved the mitochondrial membrane potential
- mitochondrial membrane potential in presence of VCP siRNA ([1]; HdhQ111 cells, HV-3 + VCP siRNA): no additional protection on the MMP
- mitochondrial membrane potential, wt ([1]; wt counterparts of the HD models): only minor effects
- mitochondrial mass [2]: corrected these aberrant events
- lysosome hyperactivity [3]: corrected these aberrant events
- Eosinophils ([4]; mean, n = 4/group): 37.00
- HCT ([4]; mean, n = 4/group): 44.60%
- Hgb ([4]; mean, n = 4/group): 13.93 gm/dL
- IRF ([4]; mean, n = 4/group): 53.97%
- Lymphocytes ([4]; mean, n = 4/group): 1645.00
- MCH ([4]; mean, n = 4/group): 14.90 pg
- MCHC ([4]; mean, n = 4/group): 31.27 g/dL
- MCV ([4]; mean, n = 4/group): 47.67 fL
- Monocytes ([4]; mean, n = 4/group): 182.33
- Neutrophils ([4]; mean, n = 4/group): 1525.67
- Platelet count ([4]; mean, n = 4/group): 1021.33 K/uL
- RBC ([4]; mean, n = 4/group): 9.37 M/uL
- RDW ([4]; mean, n = 4/group): 21.77%
- Reticulocyte Count ([4]; mean, n = 4/group): 4.30%
- WBC ([4]; mean, n = 4/group): 3.39 K/uL
- hematology (overall) ([4]; versus saline): no effects
